pEC50: −log10 of the molar value.
biological target: human GLP-1R (Homo sapiens, UniProt P43220); assay: GLP-1R Cell Assay 1: cAMP Hunter CHO-K1 GLP1R Gs cell line, HitHunter cAMP assay; assay type: cell-based; conditions: Table 3; cAMP Hunter CHO-K1 GLP1R Gs cells; percent activity normalized to Exendin-4
In short: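 Luminescent enzyme-fragment-complementation immunoassay quantified cellular cAMP after 30-60 min compound exposure at 37 °C in HBSS/10 mM HEPES. Data from duplicate runs were normalised to Exendin-4 and fitted nonlinearly for EC50.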

Chain of human GLP-1R (P43220 24-463): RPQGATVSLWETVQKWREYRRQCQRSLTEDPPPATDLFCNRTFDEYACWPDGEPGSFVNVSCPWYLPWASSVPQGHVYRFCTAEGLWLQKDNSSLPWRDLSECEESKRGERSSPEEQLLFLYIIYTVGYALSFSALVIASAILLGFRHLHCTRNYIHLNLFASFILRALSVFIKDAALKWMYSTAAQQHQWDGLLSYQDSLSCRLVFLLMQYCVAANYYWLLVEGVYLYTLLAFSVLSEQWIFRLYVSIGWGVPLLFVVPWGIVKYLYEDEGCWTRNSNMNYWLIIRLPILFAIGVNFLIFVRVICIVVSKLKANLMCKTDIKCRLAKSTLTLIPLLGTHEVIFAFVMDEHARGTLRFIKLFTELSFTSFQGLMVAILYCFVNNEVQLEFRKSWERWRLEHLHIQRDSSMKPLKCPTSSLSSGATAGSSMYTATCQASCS

| SMILES | pEC50 |
| --- | --- |
| O=C(O)c1ccc2nc(CN3CCN(c4ccc5c(n4)N(Cc4ccccc4)CCC5)CC3)n(C[C@@H]3CCO3)c2c1 [Compound 153, (S)-2-((4-(8-benzyl-5,6,7,8-tetrahydro-1,8-naphthyridin-2-yl)piperazin-1-yl)methyl)-1-(oxetan-2-ylmethyl)-1H-benzo[d]imidazole-6-carboxylic acid] | < 6.30 |
| O=C(O)c1ccc2nc(CN3CCN(c4ccc5c(n4)N(Cc4ccccc4)C(=O)CO5)CC3)n(C[C@@H]3CCO3)c2c1 [Compound 154, (S)-2-((4-(4-benzyl-3-oxo-3,4-dihydro-2H-pyrido[3,2-b][1,4]oxazin-6-yl)piperazin-1-yl)methyl)-1-(oxetan-2-ylmethyl)-1H-benzo[d]imidazole-6-carboxylic acid] | < 6.30 |
| O=C(O)c1ccc2nc(CN3CCN(c4cccc5c4CCN(c4ccccc4)C5)CC3)n(C[C@@H]3CCO3)c2c1 [Compound 155, (S)-1-(oxetan-2-ylmethyl)-2-((4-(2-phenyl-1,2,3,4-tetrahydroisoquinolin-5-yl)piperazin-1-yl)methyl)-1H-benzo[d]imidazole-6-carboxylic acid] | < 6.30 |
| O=C(O)c1ccc2nc(CN3CCN(c4cc5ccccc5c(OCc5ccccc5)n4)CC3)n(C[C@@H]3CCO3)c2c1 [Compound 156, (S)-2-((4-(1-(benzyloxy)isoquinolin-3-yl)piperazin-1-yl)methyl)-1-(oxetan-2-ylmethyl)-1H-benzo[d]imidazole-6-carboxylic acid] | 7.06 |
| O=C(O)c1ccc2nc(CN3CCC(n4cc5cccc(Oc6ccccc6)c5n4)CC3)n(C[C@@H]3CCO3)c2c1 [Compound 159, (S)-1-(oxetan-2-ylmethyl)-2-((4-(7-phenoxy-2H-indazol-2-yl)piperidin-1-yl)methyl)-1H-benzo[d]imidazole-6-carboxylic acid] | < 6.30 |
| CCn1ccnc1Cn1c(CN2CC[C@@]3(c4cccc(N5CCc6cc(C#N)cc(F)c6C5)n4)C[C@H]3C2)nc2ccc(C(=O)O)cc21 [Compound 163-P1, 2-(((1R,6S)-6-(6-(6-cyano-8-flluoro-3,4-dihydroisoquinolin-2(1H)-yl)pyridin-2-yl)-3-azabicyclo[4.1.0]heptan-3-yl)methyl)-1-((1-ethyl-1H-imidazol-2-yl)methyl)-1H-benzo[d]imidazole-6-carboxylic acid] | 9.58 |
| CCn1ccnc1Cn1c(CN2CC[C@]3(c4cccc(N5CCc6cc(C#N)cc(F)c6C5)n4)C[C@@H]3C2)nc2ccc(C(=O)O)cc21 [Compound 163-P2, 2-(((1S,6R)-6-(6-(6-cyano-8-fluoro-3,4-dihydroisoquinolin-2(1H)-yl)pyridin-2-yl)-3-azabicyclo[4.1.0]heptan-3-yl)methyl)-1-((1-ethyl-1H-imidazol-2-yl)methyl)-1H-benzo[d]imidazole-6-carboxylic acid] | 9.38 |
| CCn1cncc1Cn1c(CN2CCC(c3cccc(OCc4nc5ccc(C#N)cc5s4)n3)CC2)nc2ccc(C(=O)O)cc21 [Compound 165, 2-((4-(6-((6-cyanobenzo[d]thiazol-2-yl)methoxy)pyridin-2-yl)piperidni-1-yl)methyl)-1-((1-ethyl-1H-imidazol-5-yl)methyl)-1H-benzo[d]imidazole-6-carboxylic acid] | 10.60 |
| N#Cc1cc(F)c2c(c1)CCN(c1cccc(C34CCN(Cc5nc6ccc(C(=O)O)cc6n5CC5CCO5)CC3C4)n1)C2 (stereo not drawn) [Compound 168, 2-((6-(6-(6-cyano-8-fluoro-3,4-dihydroisoquinolin-2(1H)-yl)pyridin-2-yl)-3-azabicyclo[4.1.0]heptan-3-yl)methyl)-1-(oxetan-2-ylmethyl)-1H-benzo[d]imidazole-6-carboxylic acid] | 7.76 |
| CCn1cncc1Cn1c(CN2CC[C@@]3(c4cccc(N5CCc6cc(C#N)cc(F)c6C5)n4)C[C@H]3C2)nc2ccc(C(=O)O)cc21 [Compound 184-P1, 2-(((1R,6S)-6-(6-(6-cyano-8-fluoro-3,4-dihydroisoquinolin-2(1H)-yl)pyridin-2-yl)-3-azabicyclo[4.1.0]heptan-3-yl)methyl)-1-((1-ethyl-1H-imidazol-5-yl)methyl)-1H-benzo[d]imidazole-6-carboxylic acid] | 9.57 |

The remaining lines, values ahead:

| pEC50 | SMILES |
| --- | --- |
| 9.05 | N#Cc1ccc(COc2cccc(N3CCN(Cc4nc5ccc(C(=O)O)cc5n4C[C@@H]4CCO4)CC3)c2)c(F)c1 [Compound 150, (S)-2-((4-(3-((4-cyano-2-fluorobenzyl)oxy)phenyl)piperazin-1-yl)methyl)-1-(oxetan-2-ylmethyl)-1H-benzo[d]imidazole-6-carboxylic acid] |
| < 6.30 | O=C(O)c1ccc2nc(CN3CCC(c4cccc5c4CC(=O)N(c4ccccc4)C5)CC3)n(C[C@@H]3CCO3)c2c1 [Compound 152, (S)-1-(oxetan-2-ylmethyl)-2-((4-(3-oxo-2-phenyl-1,2,3,4-tetrahydroisoquinolin-5-yl)piperidin-1-yl)methyl)-1H-benzo[d]imidazole-6-carboxylic acid] |
| < 6.30 | O=C(O)c1ccc2nc(CN3CCN(c4nc(OCc5ccccc5)cc5ccccc45)CC3)n(C[C@@H]3CCO3)c2c1 [Compound 157, (S)-2-((4-(3-(benzyloxy)isoquinolin-1-yl)piperazin-1-yl)methyl)-1-(oxetan-2-ylmethyl)-1H-benzo[d]imidazole-6-carboxylic acid] |
| < 6.30 | O=C(O)c1ccc2nc(CN3CCN(c4ccc5c(n4)N(Cc4ccccc4)C(=O)CC5)CC3)n(C[C@@H]3CCO3)c2c1 [Compound 158, (S)-2-((4-(8-benzyl-7-oxo-5,6,7,8-tetrahydro-1,8-naphthyridin-2-yl)piperazin-1-yl)methyl)-1-(oxetan-2-ylmethyl)-1H-benzo[d]imidazole-6-carboxylic acid] |
| < 6.30 | O=C(O)c1ccc2nc(CN3CCN(c4ccc5cc(-c6ccccc6)oc5n4)CC3)n(C[C@@H]3CCO3)c2c1 [Compound 160, (S)-1-(oxetan-2-ylmethyl)-2-((4-(2-phenylfuro[2,3-b]pyridin-6-yl)piperazin-1-yl)methyl)-1H-benzo[d]imidazole-6-carboxylic acid] |
| 6.52 | O=C(O)c1ccc2nc(CN3CCC(c4cccc(OC5CCCc6ccccc65)n4)CC3)n(C[C@@H]3CCO3)c2c1 (stereo partly drawn) [Compound 161, 1-(((S)-oxetan-2-yl)methyl)-2-((4-(6-((1,2,3,4-tetrahydronaphthalen-1-yl)oxy)pyridin-2-yl)piperidin-1-yl)methyl)-1H-benzo[d]imidazole-6-carboxylic acid] |
| < 6.30 | O=C(O)c1ccc2nc(CN3CCN(c4ccc5c(n4)OC(c4ccccc4)CC5)CC3)n(C[C@@H]3CCO3)c2c1 (stereo partly drawn) [Compound 162, 1-(((S)-oxetan-2-yl)methyl)-2-((4-(2-phenyl-3,4-dihydro-2H-pyrano[2,3-b]pyridin-7-yl)piperazin-1-yl)methyl)-1H-benzo[d]imidazole-6-carboxylic acid] |
| 10.60 | CCn1cncc1Cn1c(CN2CCC(c3cccc(OCc4nc5c(F)cc(C#N)cc5s4)n3)CC2)nc2ccc(C(=O)O)cc21 [Compound 164, 2-((4-(6-((6-cyano-4-fluorobenzo[d]thiazol-2-yl)methoxy)pyridin-2-yl)piperidin-1-yl)methyl)-1-((1-ethyl-1H-imidazol-5-yl)methyl)-1H-benzo[d]imidazole-6-carboxylic acid] |

From patent US20220089578A1, “COMPOUNDS AS GLP-1R AGONISTS” (Terns Pharmaceuticals, Inc., priority 2020, published 2022)
